{"source": "paper PMC2410169", "about": "“N-hexanoyl-sphingomyelin potentiates in vitro doxorubicin cytotoxicity by enhancing its cellular influx” (British Journal of Cancer, 2004)", "key": {"BAEC [1]": {"system": "BAEC", "assay_type": "cell-based, bovine", "protocol": "(§1) For intracellular doxorubicin measurements, cells were cultured in flat-bottom 96-well plates. At confluence, cells were changed to a serum-free medium and exposed to 50 μM doxorubicin during 60 min (unless indicated otherwise). After washing with ice-cold PBS, cells were lysed in 1% (w v^−1) Triton X-100 in water. Native fluorescence intensities were then measured by a Perkin-Elmer Victor Wallac II fluorescence microplate reader, using λex 485 nm and λem 535 nm filters. Additional probes and drugs that were tested for cellular uptake during 60 min incubations, either in the absence or presence of lipid, were hydrazide-AF488 (35 μM, λex 485 nm, λem 535 nm), sulphorodamine-101 (400 μM, λex 355 nm, λem 620 nm), propidium iodide (300 μM, λex 355 nm, λem 535 nm), o-phtaldialdehyde (1 mM, λex 485 nm, λem 535 nm), topotecan (30 μM, λex 355 nm, λem 535 nm), epirubicin (50 μM, λex 485 nm, λem 535 nm), bisbenzimidine (10 μM, λex 355 nm, λem 460 nm), camptothecin (30 μM, λex 355 nm, λem 460 nm), daunorubicin (25 μM, λex 485 nm, λem 535 nm) and idarubicin (20 μM, λex 485 nm, λem 535 nm)."}, "[2]": {"system": "A431 (epidermoid carcinoma)", "test": "Cellular doxorubicin accumulation, fluorimetry of cell lysates", "assay_type": "cell-based, human", "conditions": "50 μM doxorubicin, 60 min", "protocol": "as §1"}, "[3]": {"system": "KB (oesophagal carcinoma)", "test": "Cellular doxorubicin accumulation, fluorimetry of cell lysates", "assay_type": "cell-based, human", "conditions": "50 μM doxorubicin, 60 min", "protocol": "as §1"}, "[4]": {"system": "MCF-7 (mammary adenocarcinoma)", "test": "Cellular doxorubicin accumulation, fluorimetry of cell lysates", "assay_type": "cell-based, human", "conditions": "50 μM doxorubicin, 60 min", "protocol": "as §1"}, "[5]": {"system": "control renal fibroblasts", "test": "Cellular doxorubicin accumulation in control kidney fibroblasts", "assay_type": "cell-based, mice", "conditions": "Table 2, C6-SM 10 μM, 60 min", "protocol": "(§2) The following cell types were cultured in Dulbecco's modified Eagle's medium (DMEM) containing 10% (v v^−1) foetal calf serum: primary bovine aortic endothelial cells (BAEC; passage 14–19), kindly provided by Dr A Haimovitz-Friedman (Memorial Sloan-Kettering Cancer Center, New York City NY, USA); MCF-7, KB and A431 carcinoma cells, purchased from the American Type Culture Collection (Manassas VA, USA); SV40 large-T antigen-immortalised kidney fibroblasts from Mrp1/Mdr1a/Mdr1b triple knockout mice and control renal fibroblasts ([Wijnholds et al, 2000]; kindly provided by Dr AH Schinkel, The Netherlands Cancer Institute, Amsterdam). […] All culture media were supplemented with 100 U ml^−1 penicillin, 100 μg ml^−1 streptomycin and 4 mM L-glutamine. For intracellular doxorubicin measurements, cells were cultured in flat-bottom 96-well plates. […] After washing with ice-cold PBS, cells were lysed in 1% (w v^−1) Triton X-100 in water. Native fluorescence intensities were then measured by a Perkin-Elmer Victor Wallac II fluorescence microplate reader, using λex 485 nm and λem 535 nm filters."}, "[6]": {"system": "kidney fibroblasts from Mrp1/Mdr1a/Mdr1b triple knockout mice", "test": "Cellular doxorubicin accumulation in ABC-transporter knockout fibroblasts", "assay_type": "cell-based", "conditions": "like in normal fibroblasts", "protocol": "as §2"}, "A431 cells": {"system": "A431 cells", "test": "Cell viability, MTT assay", "assay_type": "cell-based, human", "conditions": "A431, with C6-SM vs none", "protocol": "After centrifugation (3000 rpm, 10 min) supernatants were removed."}, "BAEC [7]": {"system": "BAEC", "test": "Plasma membrane integrity: uptake of fluid phase marker hydrazide-AF488", "assay_type": "cell-based, bovine", "conditions": "10 μM C6-SM", "procedure": "Confluent and serum-free BAEC were incubated for 120 min in the presence of C6-SM and 175 μM of the membrane impermeant fluid phase marker hydrazide-AF488. After washing, cells were lysed in PBS containing 1% (w v^−1) Triton X-100 and fluorescence was measured at λex 485 nm and λem 535 nm. […] All data were corrected for protein contents, as determined with the BCA assay ([Smith et al, 1985])."}, "BAEC [8]": {"system": "BAEC", "test": "Clathrin-mediated endocytosis: AF488-transferrin uptake", "assay_type": "cell-based, bovine", "conditions": "10 μM C6-SM, 120 min", "protocol": "(§3) To monitor clathrin- and raft-mediated endocytic activity, confluent BAEC were allowed to take up AF488-transferrin (150 μg ml^−1) or AF488-CTB (75 μg ml^−1), respectively. Incubations were performed under serum-free conditions in the presence of 10 μM C6-SM during 120 min. Cells were then washed and lysed in PBS containing 1% (v v^−1) Triton X-100. Fluorescence was then measured at λex 485 nm and λem 535 nm."}, "BAEC [9]": {"system": "BAEC", "test": "Raft-mediated endocytosis: AF488-CTB uptake", "assay_type": "cell-based, bovine", "conditions": "10 μM C6-SM, 120 min", "protocol": "as §3"}, "BAEC [10]": {"system": "BAEC", "procedure": "For viability assessment, cells were cultured in flat-bottom 96-well plates. After experimental treatments, 100 μg of the mitochondrial dehydrogenase substrate MTT was added to each well ([Carmichael et al, 1987]). Cells were then incubated for 60 min at 37°C. After centrifugation (3000 rpm, 10 min) supernatants were removed. The precipitated blue formazan products were then dissolved in 100 μl DMSO and absorbencies were read in a Bio-Tek Instruments EL 340 photospectrometric microplate reader at 540 nm. Background absorbencies were subtracted and values from untreated control cells were set at 100% viability.\nAfter washing away remaining extracellular drug and lipid, cells were cultured for another 48 h. Viability was then assessed by the MTT assay, which relies on the fact that only mitochondria of viable cells have the capacity to convert the MTT substrate ([Carmichael et al, 1987])."}}, "note": "Like-named read-outs stand apart in the source and are kept apart here."}
{"smiles": "CCCCCCCCCCCCCC=CC(O)C(COP(=O)([O-])OCC[N+](C)(C)C)NC(=O)CCCCC", "note": "(centres unmarked) [C6-SM, N-hexanoyl-sphingomyelin]", "values": [{"measurement": "C6-SM concentration at which the plateau in doxorubicin-uptake enhancement and cytotoxicity is reached", "setting": "BAEC [1]", "value": "about 8 μM"}, {"measurement": "Enhanced doxorubicin uptake after washing away C6-SM not taken up by the cells", "setting": "BAEC [1]", "value": "remained"}, {"measurement": "Increase of intracellular doxorubicin over control levels", "setting": "BAEC [1]; 10 μM C6-SM, 50 μM doxorubicin, incubation periods of 15–60 min", "value": "up to 300%"}, {"measurement": "Doxorubicin (% of control±s.d.)", "setting": "BAEC [1]; 10 μM lipid analogue with 50 μM doxorubicin, 60 min, control = no lipid, no ethanol, n=3", "value": "328.3±24.4 % of control"}, {"measurement": "Lipid concentration giving a significant increase in drug uptake", "setting": "BAEC [1]; 50 μM doxorubicin, 60 min", "value": 2, "unit": "µM"}, {"measurement": "Doxorubicin (% of control±s.d.)", "setting": "BAEC [1]; Table 2, C6-SM 10 μM + ATP depletion", "value": "410.9±157.0 % of control"}, {"measurement": "Doxorubicin (% of control±s.d.)", "setting": "BAEC [1]; Table 2, C6-SM 10 μM + MK571 12.5 μM", "value": "323.3±23.0 % of control"}, {"measurement": "Doxorubicin (% of control±s.d.)", "setting": "BAEC [1]; Table 2, C6-SM 10 μM + PSC833 5 μM", "value": "278.1±40.7 % of control"}, {"measurement": "Doxorubicin (% of control±s.d.)", "setting": "BAEC [1]; Table 2, C6-SM 10 μM alone, 60 min, n=3", "value": "369.0±113.0 % of control"}, {"measurement": "Doxorubicin (% of control±s.d.)", "setting": "BAEC [1]; Table 4, C6-SM 10 μM after CDX 10 mM, 30 min", "value": "264.7±72.1 % of control"}, {"measurement": "Doxorubicin (% of control±s.d.)", "setting": "BAEC [1]; Table 4, C6-SM 10 μM after PPMP 30 μM, 96 h", "value": "340.7±78.6 % of control"}, {"measurement": "Doxorubicin (% of control±s.d.)", "setting": "BAEC [1]; Table 4, C6-SM 10 μM after bSMase 200 mU ml^−1, 2 h", "value": "386.2±74.7 % of control"}, {"measurement": "Doxorubicin (% of control±s.d.)", "setting": "BAEC [1]; Table 4, C6-SM 10 μM, no pretreatment, n=3", "value": "353.3±62.6 % of control"}, {"measurement": "Maximum increase in doxorubicin uptake over control values", "setting": "BAEC [1]; at 6 μM C6-SM, 50 μM doxorubicin, 60 min", "value": 300, "unit": "%"}, {"measurement": "C6-SM-stimulated doxorubicin uptake under conditions that block endocytosis", "setting": "BAEC [1]; cells at 4°C or depleted for ATP (sodium azide and deoxyglucose)", "value": "remained unaffected"}, {"measurement": "Active concentrations", "setting": "BAEC [1]; doxorubicin uptake enhancement", "value": "2 to 6", "unit": "µM"}, {"measurement": "Drug uptake-enhancing effect after removal of membrane-inserted C6-SM", "setting": "BAEC [1]; hydrolysis by exogenous bSMase or BSA back-exchange, not shown", "value": "strongly diminished"}, {"measurement": "Enhanced uptake of doxorubicin", "setting": "BAEC [1]; low micromolar amounts of lipid (abstract)", "value": "up to 300%"}, {"measurement": "Concentration-dependent C6-SM effect on doxorubicin accumulation compared with BAEC", "setting": "[2]", "value": "Comparable results"}, {"measurement": "Concentration-dependent C6-SM effect on doxorubicin accumulation compared with BAEC", "setting": "[3]", "value": "Comparable results"}, {"measurement": "Concentration-dependent C6-SM effect on doxorubicin accumulation compared with BAEC", "setting": "[4]", "value": "Comparable results"}, {"measurement": "Doxorubicin (% of control±s.d.)", "setting": "[5]", "value": "331.8±50.2 % of control"}, {"measurement": "Increase compared to doxorubicin uptake in the absence of the lipid analogue", "setting": "[6]", "value": "three- to four-fold increase"}, {"measurement": "Increase in drug sensitivity", "setting": "A431 cells", "value": 14, "unit": "fold"}, {"measurement": "Hydrazide-AF488 uptake compared to 100% control uptake", "setting": "BAEC [7]", "value": "97.4±18.2", "unit": "%"}, {"measurement": "Transferrin uptake compared to 100% uptake under control conditions", "setting": "BAEC [8]", "value": "67±36", "unit": "%"}, {"measurement": "CTB uptake compared to 100% uptake under control conditions", "setting": "BAEC [9]", "value": "80±23", "unit": "%"}, {"measurement": "Toxicity of C6-SM itself", "setting": "BAEC [10]", "value": "virtually nontoxic"}, {"measurement": "Increase in doxorubicin sensitivity", "setting": "BAEC [10]; BAEC, 10 μM C6-SM vs none", "value": "seven-fold increase in sensitivity"}]}
